Data reported in patent publication US11434221B2, “Pyrazine-4-carbamate or -urea derivatives as herbicides” (Syngenta Participations AG, priority 2017, dated 2022).

Legend:
Type in all cases: in vivo
Set-up in all cases: key: 5=total damage to plant; 0=no damage to plant
[1] = tested on: Triticum aestivium (TRZAW); assay: Pre-emergence herbicidal activity, glasshouse pot test; details: Rate 1000 g/ha; sprayed one day after sowing; evaluated after 13 days
How it was run: (§1)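 Seeds sown in standard soil in pots, kept one day in glasshouse (24/16 °C day/night, 14 h light, 65% humidity), then sprayed pre-emergence with aqueous solution from acetone/water (50:50) formulation with 0.5% Tween 20. Grown under same conditions, watered twice daily; damage scored after 13 days (0 = none, 5 = total).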

[2] = tested on: Alopecurus myosuroides (ALOMY); assay: as above; details: Rate 1000 g/ha; sprayed one day after sowing; evaluated after 13 days
How it was run: as §1

Avena fatua (AVEFA) [3] = assay: as above; details: Rate 1000 g/ha; sprayed one day after sowing; evaluated after 13 days
How it was run: as §1

[4] = tested on: Echinochloa crus-galli (ECHCG); assay: as above; details: Rate 1000 g/ha; sprayed one day after sowing; evaluated after 13 days
How it was run: as §1

Lolium perenne (LOLPE) [5] = assay: as above; details: Rate 1000 g/ha; sprayed one day after sowing; evaluated after 13 days
How it was run: as §1

Setaria faberi (SETFA) [6] = assay: as above; details: Rate 1000 g/ha; sprayed one day after sowing; evaluated after 13 days
How it was run: as §1

[7] = tested on: Triticum aestivium (TRZAW); assay: Post-emergence herbicidal activity, glasshouse pot test; details: Rate 1000 g/ha; sprayed after 8 days cultivation; evaluated after 13 days
How it was run: (§2)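 Pot-grown plants were sprayed 8 days after sowing (post-emergence) with active ingredient in acetone/water 50:50 containing 0.5% Tween 20. Glasshouse conditions were 24/16 °C, 14 h light and 65% humidity. Damage was scored 0 (none) to 5 (total) after 13 days.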

[8] = tested on: Alopecurus myosuroides (ALOMY); assay: as above; details: Rate 1000 g/ha; sprayed after 8 days cultivation; evaluated after 13 days
How it was run: as §2

Avena fatua (AVEFA) [9] = assay: as above; details: Rate 1000 g/ha; sprayed after 8 days cultivation; evaluated after 13 days
How it was run: as §2

[10] = tested on: Echinochloa crus-galli (ECHCG); assay: as above; details: Rate 1000 g/ha; sprayed after 8 days cultivation; evaluated after 13 days
How it was run: as §2

Lolium perenne (LOLPE) [11] = assay: as above; details: Rate 1000 g/ha; sprayed after 8 days cultivation; evaluated after 13 days
How it was run: as §2

Setaria faberi (SETFA) [12] = assay: as above; details: Rate 1000 g/ha; sprayed after 8 days cultivation; evaluated after 13 days
How it was run: as §2

SMILES	Control of weed species after pre-emergence application, TRAZW (damage score 0-5) [1]	Control of weed species after pre-emergence application, ALOMY (damage score 0-5) [2]	Control of weed species after pre-emergence application, AVEFA (damage score 0-5) (Avena fatua (AVEFA) [3])	Control of weed species after pre-emergence application, ECHCG (damage score 0-5) [4]	Control of weed species after pre-emergence application, LOLPE (damage score 0-5) (Lolium perenne (LOLPE) [5])	Control of weed species after pre-emergence application, SETFA (damage score 0-5) (Setaria faberi (SETFA) [6])	Control of weed species after post-emergence application, TRAZW (damage score 0-5) [7]	Control of weed species after post-emergence application, ALOMY (damage score 0-5) [8]	Control of weed species after post-emergence application, AVEFA (damage score 0-5) (Avena fatua (AVEFA) [9])	Control of weed species after post-emergence application, ECHCG (damage score 0-5) [10]	Control of weed species after post-emergence application, LOLPE (damage score 0-5) (Lolium perenne (LOLPE) [11])	Control of weed species after post-emergence application, SETFA (damage score 0-5) (Setaria faberi (SETFA) [12])
CC(C)(C)OC(=O)Nc1ncc(-c2cncnc2)nc1C(F)F [Compound H30]	1	0	0	3	1	4	1	1	3	4	2	4
CC(C)(C)OC(=O)Nc1ncc(-c2cncc(F)c2)nc1C(F)F [Compound H28]	0	3	2	2	0	4	0	0	4	5	3	5
